According to US10927075B2, “Compositions and methods relating to the treatment of cancer, autoimmune disease, and neurodegenerative disease” (THE JACKSON LABORATORY, priority 2014, dated 2021):

Tests used:
[1] = tested on: WT, AID−/−, or Trp53−/− B-cells; test: Active caspase-3 (AC3) immunofluorescence; assay type: cell-based, mouse; details: 100 nM, 3 days after activation
Protocol: FIG. 16A depicts the measurement of viability of primary WT (AID+/+, circle markers), AID−/− (square markers), and p53−/− (triangle markers) B cells under activating conditions (αCD40 and IL-4 on days 0 and 2) and treated with either DMSO (filled in markers) or 100 nM C-1523 (open markers). Measurement of cell viability was determined by Trypan Blue staining and counting of viable, non-staining, cells via hemocytometer. Data are represented as the mean cell count for each condition. FIG. 16B depicts analysis of cell death on day 4 of cells treated as in FIG. 16A. Cell death was measured by Trypan Blue staining and counting of blue, dead cells via hemocytometer. FIG. 16C depicts quantitation of active caspase-3 (AC3) in primary B cells via immunofluorescence assay. Left, positive (WT, 10 Gy IR) and negative (0 Gy, and p53−/− 10 Gy) controls for AC3 induction. […]
Cell death mediated by C-1523 is p53-dependent. […] To test the importance of p53, a central regulator of cellular responses to DNA damage, viability was measured in mouse primary B-cells from Trp53+/+ versus Trp53−/− mice following exposure to C-1523. […] Caspase 3 activation, a marker of apoptotic cell death, was measured in C-1523 treated B-cells. B-cells were stained with an antibody that recognizes cleaved, activated caspase-3 (AC3) and the number of AC3-positive cells was measured via immunofluorescence microscopy. […]

[2] = tested on: primary, AID expressing B-cells; test: Live cell imaging of nuclei fragmentation; assay type: cell-based, mice; details: 100 nM, individual cell imaged at 20 minute intervals
Protocol: FIG. 22 depicts live cell imaging of primary, AID expressing B-cells treated with 100 nM C-1523. Histone H2B-EGFP transgenic mice were used as a source of B-cells to facilitate imaging of chromatin. The top panel depicts an individual cell imaged at 20 minute intervals for 460 minutes. Images show chromosomal fragmentation commencing at 120 minutes. Data in the bottom panels depict quantification of live cell imaging depicting the fraction of cells that commence fragmentation at each time point (bottom left panel) and the cumulative fraction of fragmented nuclei (bottom right panel).
AID+/+ or AID−/− B-cells were cultured with 100 nM and cell cycle profiles were determined by propidium iodide staining and flow cyotmetry at intervals up to 96 hours. Non-activated (CD40) cells were used as a negative control; activated cells treated with the microtuble poison colcemid (ACT+colcemid) were used as a positive control. Nuclei fragmentation analysis of primary, AID expressing B-cells treated with 100 nM C-1523 was conducted (FIG. 22).

In the case of CC(=O)Nc1ccc(/C=C/c2ccc(NC(=S)NC(C)C)cc2S(=O)(=O)O)c(S(=O)(=O)O)c1 [C-1523, (E)-5-acetamido-2-(4-(3-isopropylthioureido)-2-sulfonatostyryl)benzenesulfonate], the “caspase 3 activation” value [1] is reported as “did not significantly induce caspase 3 activation” and the “time at which chromosomal fragmentation commences” value [2] is reported as 120 min.
